For series [1], the target named is T1, P-glycoprotein (ABCB1) (Homo sapiens, UniProt P08183). The series can be described thus: Inhibition of human P-glycoprotein transfected in pig LLC-GA5-COL150 cells assessed as quinidine transport from apical to basolateral side at 2 uM preincubated for 30 mins followed by quinidine addition to apical side measured after 60 mins. Conditions: LLC-PK1, probe quinidine.

Series [2] deals with T1, P-glycoprotein (ABCB1). In words: Inhibition of human P-glycoprotein transfected in pig LLC-GA5-COL150 cells assessed as quinidine transport from apical to basolateral side at 30 uM preincubated for 30 mins followed by quinidine addition to apical side measured after 60 mins. The conditions noted are these: LLC-PK1, probe quinidine. It counts as cell-based.
A short description of series [3]: Lipophilicity , logP of the compound. The series is classed as physicochemical. The conditions noted are these: octanol/water.
The target in series [4] is ATP-dependent translocase ABCB1 (Homo sapiens, UniProt P08183). The series can be described thus: Inhibition of human P-glycoprotein transfected in pig LLC-GA5-COL150 cells assessed as quinidine transport from apical to basolateral side preincubated for 30 mins followed by quinidine addition to apical side measured after 60 mins. The series is classed as cell-based. The arrangement: log(activity): scale not given here. Conditions: for log(activity): human, llc-ga5-col150, 1 h.
ATP-dependent translocase ABCB1, sequence (P08183 whole entry): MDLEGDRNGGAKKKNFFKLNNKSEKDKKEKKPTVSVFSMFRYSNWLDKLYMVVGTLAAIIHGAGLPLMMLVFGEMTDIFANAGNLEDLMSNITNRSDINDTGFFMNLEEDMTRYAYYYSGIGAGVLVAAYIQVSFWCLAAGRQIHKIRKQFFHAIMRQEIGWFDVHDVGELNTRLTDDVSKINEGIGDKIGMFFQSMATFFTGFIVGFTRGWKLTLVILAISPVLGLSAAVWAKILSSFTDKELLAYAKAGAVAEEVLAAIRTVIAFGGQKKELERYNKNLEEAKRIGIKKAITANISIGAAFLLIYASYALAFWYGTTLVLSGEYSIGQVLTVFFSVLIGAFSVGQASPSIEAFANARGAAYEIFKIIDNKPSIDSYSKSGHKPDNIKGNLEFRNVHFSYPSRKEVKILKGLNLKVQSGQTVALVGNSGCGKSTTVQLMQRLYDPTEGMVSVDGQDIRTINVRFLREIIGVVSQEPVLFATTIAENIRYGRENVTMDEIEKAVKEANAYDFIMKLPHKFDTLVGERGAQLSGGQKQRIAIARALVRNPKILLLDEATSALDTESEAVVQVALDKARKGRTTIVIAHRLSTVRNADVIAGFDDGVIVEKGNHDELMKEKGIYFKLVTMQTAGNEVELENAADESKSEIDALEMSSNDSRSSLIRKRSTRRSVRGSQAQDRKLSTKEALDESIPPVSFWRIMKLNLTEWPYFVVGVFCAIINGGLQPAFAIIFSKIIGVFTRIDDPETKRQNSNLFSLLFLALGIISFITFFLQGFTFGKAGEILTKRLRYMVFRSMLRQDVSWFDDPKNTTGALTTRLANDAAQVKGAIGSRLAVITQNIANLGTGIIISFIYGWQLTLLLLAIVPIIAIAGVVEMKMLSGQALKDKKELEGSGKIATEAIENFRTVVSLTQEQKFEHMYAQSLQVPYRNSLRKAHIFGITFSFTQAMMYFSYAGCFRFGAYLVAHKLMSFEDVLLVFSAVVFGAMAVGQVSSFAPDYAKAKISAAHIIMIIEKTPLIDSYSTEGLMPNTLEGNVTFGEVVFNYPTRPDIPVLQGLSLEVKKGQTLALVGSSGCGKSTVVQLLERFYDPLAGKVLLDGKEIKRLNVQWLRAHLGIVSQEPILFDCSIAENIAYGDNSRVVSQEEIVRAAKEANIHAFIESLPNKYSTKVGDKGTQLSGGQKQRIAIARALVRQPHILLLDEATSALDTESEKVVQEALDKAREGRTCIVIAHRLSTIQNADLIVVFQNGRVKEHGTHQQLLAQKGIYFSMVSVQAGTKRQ

T1 sequence (P08183 whole entry): as above

As to `COc1cc2c(cc1OC)CN(CCc1ccc(NC(=O)c3cccc4c(=O)c5cccc(OC)c5[nH]c34)cc1)CC2`, the inhibition at 1 h, 2 µM at P-glycoprotein (ABCB1) [1] amounted to 100%.
In the case of `Cc1ccc(C(=O)NN(C(=O)c2cc(C)cc(C)c2)C(C)(C)C)cc1`, the inhibition at 1 h, 30 µM on P-glycoprotein (ABCB1) [2] was found to be 30.9%. For the same compound, the log partition coefficient (logP) in series [3] turned out to be 3.95. For the same compound, the “log(activity)” value in series [4] is on record as -0.35.
Take `CC(C)(C)N(NC(=O)c1c(F)cccc1F)C(=O)c1ccccc1Cl`: the inhibition at 1 h, 30 µM on P-glycoprotein (ABCB1) [2] stood at 4.2%. In series [3], this compound showed a logP of 2.35. In addition, the “log(activity)” value in series [4] is recorded as -1.36.
Regarding `COc1cccc(C(=O)NN(C(=O)c2ccccc2Cl)C(C)(C)C)c1C`, the inhibition at 1 h, 30 µM at P-glycoprotein (ABCB1) [2] was found to be 12.2%. For the same compound, the logP in series [3] was found to be 3.46. In series [4], the “log(activity)” value is -0.86.
For `Cc1cc(C)cc(C(=O)N(NC(=O)c2ccccc2C)C(C)(C)C)c1`, on P-glycoprotein (ABCB1) [2], the inhibition at 1 h, 30 µM was found to be 22.3%. In series [3], this compound came in with a logP of 3.98. For the same compound, in series [4], the IC50 is 79.9 µM and the “log(activity)” value is -0.54.
As to `Cc1cc(C)cc(C(=O)N(NC(=O)c2ccc(C)c(C)c2C)C(C)(C)C)c1`, at P-glycoprotein (ABCB1) [2], the inhibition at 1 h, 30 µM came out at 54.2%. The lipophilicity (logP) in series [3] was 4.88. In series [4], the “log(activity)” value amounted to 0.07.
As for `Cc1ccc(C(=O)NN(C(=O)c2ccccc2Cl)C(C)(C)C)cc1C`, the inhibition at 1 h, 30 µM at P-glycoprotein (ABCB1) [2] was found to be 20.8%. Further, in series [3], the lipophilicity (logP) was 3.65. Besides, the “log(activity)” value in series [4] was -0.58.

In general, inhibition refers to the change of the read-out against control, counted positive when it falls. For orientation: logP means a log measure of how a compound divides between an organic and an aqueous phase. Broadly, the IC50 is the concentration that inhibits the measured activity by half.
